Laboratory results as given in US20100048733A1, “PENETRATION ENHANCER FOR FUNGICIDES” (Bayer CropScience AG, priority 2006, published 2010).
“Also recorded” adds a separate entry of the source.

Key:
[1] = Penetration test: active substance penetration through enzymatically isolated apple leaf cuticles in diffusion cells, radioactively marked active substance; assay type: in vitro ADME, apple trees of the Golden Delicious variety
Protocol: In this test, the penetration of active substances through enzymatically isolated cuticles of apple tree leaves was measured.
Leaves which were cut off in the stage of full development of apple trees of the Golden Delicious variety were used. The isolation of the cuticles was effected in a manner such that • first, leaf disks marked on the underside with dye and punched out were filled by means of vacuum infiltration with a pectinase solution (0.2 to 2% strength by weight) buffered to a pH between 3 and 4, • sodium azide was then added and • the leaf disks thus treated were allowed to stand until disintegration of the original leaf structure and detachment of the noncellular cuticle.
Thereafter, only those cuticles of the upper sides of the leaves which were free of stomata and hairs were further used. They were washed several times alternately with water and a buffer solution at pH 7. The cleaned cuticles obtained were finally drawn onto small Teflon plates and smoothed and dried with a gentle air jet.
In the next step, the cuticle membranes thus obtained were placed in stainless steel diffusion cells (=transport chambers) for membrane transport investigations. For this purpose, the cuticles were placed by means of forceps centrally on the silicone grease-coated edges of the diffusion cells and closed with a likewise greased ring. The arrangement was chosen so that the morphological outside of the cuticles faced outward, i.e. toward the air, while the original inside faced the interior of the diffusion cell. The diffusion cells were filled with water or with a mixture of water and solvent.
For determining the penetration, in each case 10 μl of a spray liquor of the composition mentioned in the examples were applied to the outside of a cuticle.
In each case the solvents listed below in the table (tap water or a mixture with 20% by weight of acetone/80% by weight of tap water) were used in the spray liquors.
After the application of the spray liquors, in each case the solvent was allowed to evaporate, and in each case the chambers were then turned around and placed in thermostated trays, air having a defined temperature and atmospheric humidity being blown onto the outside of the cuticle. The incipient penetration therefore took place at a relative humidity of 60% and a set temperature of 20 or 25° C. The active substance penetration was measured with radioactively marked active substance.

crop plant = experiment: Crop plant tolerance tests; assay type: in vivo; conditions: compared with other alkyl ester additives; no data shown
[2] = penetration of tebuconazole 0.3 g/l, without or with 2.0 g/l penetration enhancer, acetone/tap water 20/80% by weight, apple leaf cuticles, T = 20-25° C., rel. humidity 56-60%, mean of 4-8 repetitions

SMILES: CC(C)(C)C(O)(CCc1ccc(Cl)cc1)Cn1cncn1 (centres unmarked) [tebuconazole]
- % Penetration (after 3 hours) [1, 2]: 0.9%
- % Penetration (after 24 hours) [1, 2]: 1.1%

SMILES: CCCCOCCOP(=O)(OCCOCCCC)OCCOCCCC [TBEP, tributoxyethyl phosphate]
- Effect of the penetration enhancer on uptake of the active substances (in words) ([1]; summary of tables 1 and 2, 2.0 g/l TBEP with 0.3 g/l fungicide): considerable increase in uptake of the active substances; also recorded: advantageously higher increase in uptake of active substances than the penetration enhancers of the prior art
- Crop plant tolerance (crop plant): more tolerant than other alkyl ester additives

SMILES: OC(Cc1ccccc1Cl)(Cn1nc[nH]c1=S)C1(Cl)CC1 (centres unmarked) [prothioconazole]
- % Penetration (after hours): 3 hours ([1]; after 3 h, 0.3 g/l active substance, without or with 2.0 g/l TBEP, acetone/tap water 20/80% by weight, apple leaf cuticles, T = 20-25° C., rel. humidity 56-60%, mean of 4-8 repetitions): 0.04 (3) %
- % Penetration (after hours): 24 hours ([1]; after 24 h, 0.3 g/l active substance, without or with 2.0 g/l TBEP, acetone/tap water 20/80% by weight, apple leaf cuticles, T = 20-25° C., rel. humidity 56-60%, mean of 4-8 repetitions): 0.6 (24) %

SMILES: O=C(NCc1ncc(C(F)(F)F)cc1Cl)c1c(Cl)cccc1Cl [fluopicolid, 2,6-dichloro-N-[[3-chloro-5-(trifluoromethyl)-2-pyridinyl]methyl]benzamide]
- % Penetration (after hours): 3 hours ([1]; apple tree, 3 h, 0.3 g/l): 0.1 (3) %
- % Penetration (after hours): 24 hours ([1]; apple tree, 24 h, 0.3 g/l): 0.6 (24) %
